Test systems include T-47D breast; A498 renal; COLO 205 colon; SF-539 CNS; SW-620 colon; MOLT-4 leukemia; SN12C renal; LOX IMVI melanoma; SNB-19 CNS; SF-268 CNS.
What all share (assay): NCI anticancer screen, dose series, 48 h

“And” between values parts separate entries of the source, which are not always exact repeats. Equal values may be shown once.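 These data come from cells grown in 96-well plates and exposed to compound for 48 hours at five concentrations. Abbreviation: GI50, concentration required for 50% inhibition of growth. The concentration for full growth arrest is given as TGI.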

For the compound `c1ccc2c(-c3cnn4cc(-c5ccc(N6CCNCC6)cc5)cnc34)ccnc2c1`, the GI50 with T-47D breast is 1.42 µM; in the assay with A498 renal it was 1.43 µM; in the assay on COLO 205 colon, 1.42 µM; in the assay on SF-539 CNS, 1.31 µM; with SW-620 colon it was 0.335 µM; in the assay with MOLT-4 leukemia, 0.885 µM. Also, the GI50 was 1.22 µM in the assay with SN12C renal, 1.27 µM in the assay with LOX IMVI melanoma, 1.25 µM in the assay with SNB-19 CNS and 1.43 µM in the assay on SF-268 CNS. The TGI in the assay with T-47D breast is 3.2 µM; with A498 renal, 2.87 µM; with COLO 205 colon, 2.81 µM; with SF-539 CNS, 2.6 µM; in the assay on SW-620 colon, 1.37 µM; in the assay with MOLT-4 leukemia, 2.34 µM. The TGI was 2.62 µM with SN12C renal, 2.58 µM in the assay on LOX IMVI melanoma, 2.56 µM in the assay on SNB-19 CNS and 2.8 µM in the assay on SF-268 CNS.

As to `Cc1[nH]c(=O)nc(N/N=C/c2ccc(Cl)cc2)c1C(=O)Nc1ccc(Cl)cc1`, the TGI in the assay with T-47D breast is above 85.4 µM; in the assay with A498 renal, 57.2 µM; in the assay with COLO 205 colon, above 88.1 µM; in the assay on SF-539 CNS it was 67.6 µM; in the assay with SW-620 colon, above 89.3 µM; in the assay with MOLT-4 leukemia it was above 91.9 µM. Besides, the TGI in the assay with SN12C renal was above 100 µM; in the assay on LOX IMVI melanoma, above 90.8 µM; in the assay with SNB-19 CNS, above 15.8 µM; in the assay with SF-268 CNS, above 100 µM.

For the compound `Cc1ccc(N(/C=C/C(=O)C(F)(F)F)CC(=O)c2ccc(Cl)c(Cl)c2)cc1`, the GI50 was 12.2 µM in the assay on T-47D breast; 8.05 µM with A498 renal; 10 µM in the assay with COLO 205 colon; 2.77 µM in the assay on SF-539 CNS; 2.88 µM with SW-620 colon; 4.48 µM with MOLT-4 leukemia. For the same compound, the GI50 in the assay with SN12C renal was 13.1 µM; in the assay with LOX IMVI melanoma, 10.1 µM; in the assay with SNB-19 CNS it was 12.9 µM; with SF-268 CNS, 12.5 µM. For the same compound, the TGI in the assay on T-47D breast stood at 25.8 µM; in the assay on A498 renal, 20.9 µM; with COLO 205 colon, 21.6 µM; with SF-539 CNS it was 17 µM; in the assay with SW-620 colon, 15.2 µM; in the assay on MOLT-4 leukemia, 19.9 µM. In addition, the TGI was determined as 25.8 µM with SN12C renal, 21.8 µM in the assay on LOX IMVI melanoma, 25.5 µM in the assay with SNB-19 CNS and 25 µM in the assay with SF-268 CNS.

Consider `Cc1cccc2c(N=Nc3ccccc3[N+](=O)[O-])c(O)[nH]c12`, for which the TGI in the assay on T-47D breast is 21.9 µM; with A498 renal, above 38.3 µM; in the assay on COLO 205 colon, above 63.5 µM; with SF-539 CNS, 8.96 µM; in the assay with SW-620 colon, above 74.6 µM; in the assay with MOLT-4 leukemia, above 100 µM. The TGI in the assay with SN12C renal is 26.8 µM; in the assay on LOX IMVI melanoma it was 27.1 µM; with SNB-19 CNS it was above 74.1 µM; with SF-268 CNS, 33.3 µM.

On to `CNC12C3C4C1C1C2C3C41C(=O)N[C@H](C(=O)N(C)[C@H](C[C@@H](OC(C)=O)c1nc(C(=O)N[C@@H](Cc2ccccc2)C[C@H](C)C(=O)OC)cs1)C(C)C)C1CC1` (stereo not given in full), for which the GI50 in the assay with T-47D breast is 1.38 µM; in the assay with A498 renal, 1.06 µM; in the assay with COLO 205 colon, 0.493 µM; with SF-539 CNS it was 0.322 µM; in the assay with SW-620 colon, 0.21 µM; in the assay on MOLT-4 leukemia, 0.467 µM. In addition, the GI50 in the assay on SN12C renal was 0.612 µM; in the assay on LOX IMVI melanoma, 0.234 µM; in the assay with SNB-19 CNS it was 0.679 µM; in the assay on SF-268 CNS, 0.354 µM. In addition, the TGI in the assay on T-47D breast is above 15 µM; in the assay with A498 renal, above 10.9 µM; with COLO 205 colon, 2.31 µM; with SF-539 CNS it was 0.93 µM; with SW-620 colon it was above 15 µM; with MOLT-4 leukemia, above 13.6 µM. The TGI in the assay on SN12C renal was above 15 µM; with LOX IMVI melanoma it was above 15 µM; with SNB-19 CNS it was above 15 µM; in the assay with SF-268 CNS, above 10.6 µM.

Take `CCOC(=O)Nc1ccc(C(=O)/C=C/c2ccccc2)cc1`: the GI50 is 21.6 µM in the assay with T-47D breast; 26.1 µM with A498 renal; 20.3 µM in the assay with COLO 205 colon; 20.2 µM with SF-539 CNS; 19.2 µM in the assay on SW-620 colon; 27.9 µM in the assay with MOLT-4 leukemia. The GI50 in the assay with SN12C renal is 24.4 µM; with LOX IMVI melanoma it was 8.7 µM; with SNB-19 CNS, 26.4 µM; with SF-268 CNS, 23.8 µM. For the same compound, the TGI in the assay on T-47D breast is above 100 µM; in the assay on A498 renal, 72.6 µM; in the assay with COLO 205 colon, 47.6 µM; in the assay on SF-539 CNS, 46.3 µM; in the assay on SW-620 colon it was above 100 µM; with MOLT-4 leukemia, above 100 µM. For the same compound, the TGI in the assay on SN12C renal is above 100 µM; in the assay with LOX IMVI melanoma, 33.1 µM; in the assay with SNB-19 CNS, above 100 µM; in the assay on SF-268 CNS, 69 µM.

Consider `CNC(=O)/C(=C/c1ccc(OC)cc1)c1cc(OC)c(OC)c(OC)c1`, for which the TGI in the assay with T-47D breast is above 100 µM; with A498 renal it was above 43.4 µM; with COLO 205 colon, 7.36 µM; in the assay on SF-539 CNS, 3.58 µM; in the assay with SW-620 colon, above 100 µM; in the assay with MOLT-4 leukemia, above 100 µM. Besides, the TGI is 98.1 µM in the assay with SN12C renal, above 100 µM in the assay with LOX IMVI melanoma, 54.8 µM in the assay with SNB-19 CNS and above 84.7 µM in the assay with SF-268 CNS.

In the case of `COc1cccc2c1C(=O)c1c(O)c3c(c(O)c1C2=O)C[C@@](O)(C(C)=O)C[C@@H]3OC1CC(O)C(O)C(C)O1` (stereo not given in full), the TGI with T-47D breast is 36.9 µM; with A498 renal, 9.01 µM; in the assay on COLO 205 colon, 27 µM; in the assay with SF-539 CNS, 9.15 µM and 10.2 µM; in the assay with SW-620 colon it was 35.5 µM; in the assay with MOLT-4 leukemia it was 0.523 µM and 0.137 µM. Moreover, the TGI is 8.75 µM and 17.5 µM with SN12C renal; 3.77 µM and 2.6 µM with LOX IMVI melanoma; 8.41 µM and 20.5 µM in the assay with SNB-19 CNS; 9.38 µM and 12.8 µM in the assay on SF-268 CNS.

For `C[n+]1cc2cc3c(cc2c2ccccc21)OCO3`, the GI50 is 2.95 µM with T-47D breast; 1.05 µM in the assay on A498 renal; 4.48 µM in the assay with COLO 205 colon; 4.83 µM in the assay on SF-539 CNS; 4.52 µM in the assay on SW-620 colon; 4.02 µM in the assay on MOLT-4 leukemia. The GI50 in the assay with SN12C renal was 2.31 µM; with LOX IMVI melanoma, 9.11 µM; in the assay with SNB-19 CNS, 1.64 µM; in the assay on SF-268 CNS, 0.48 µM. Moreover, the TGI in the assay on T-47D breast was 14.4 µM; in the assay on A498 renal, 8.57 µM; in the assay with COLO 205 colon it was 24 µM; with SF-539 CNS, 23.8 µM; with SW-620 colon it was above 100 µM; in the assay on MOLT-4 leukemia it was above 100 µM. Also, the TGI was found to be 11.1 µM in the assay on SN12C renal, 53.8 µM in the assay on LOX IMVI melanoma and 2.57 µM with SF-268 CNS.

As to `O=C1c2ccccc2C(=O)c2sc(Nc3ccc(Cl)cc3)nc21`, in the assay on T-47D breast, the GI50 was 1.8 µM. Besides, the TGI in the assay on T-47D breast stood at 7.52 µM; in the assay on A498 renal, 29.7 µM; in the assay on COLO 205 colon it was 17.7 µM; in the assay with SF-539 CNS, 6.33 µM; in the assay on SW-620 colon it was 3.31 µM; in the assay on MOLT-4 leukemia, 3.75 µM. Besides, the TGI in the assay on SN12C renal was determined as 3.56 µM; with LOX IMVI melanoma, 2.91 µM; with SNB-19 CNS, 9.71 µM; with SF-268 CNS, 5.52 µM.

`C/C(=C1/N=C(c2ccccc2)OC1=O)c1ccccc1`: the TGI with T-47D breast, with A498 renal, with COLO 205 colon, in the assay on SF-539 CNS, in the assay on SW-620 colon and in the assay with MOLT-4 leukemia was above 100 µM in each case. Also, the TGI with SN12C renal, in the assay on LOX IMVI melanoma, in the assay on SNB-19 CNS and with SF-268 CNS was above 100 µM in each case.

Turning to `COc1ccc2c(c1)C(=O)c1c-2n(CCCN=[N+]=[N-])c(=O)c2cc(N)ccc12`, the GI50 in the assay on T-47D breast, in the assay with A498 renal, with COLO 205 colon, in the assay with SF-539 CNS, in the assay with SW-620 colon and with MOLT-4 leukemia was above 100 µM in each case. Moreover, the GI50 with SN12C renal, in the assay with LOX IMVI melanoma, in the assay with SNB-19 CNS and in the assay on SF-268 CNS was above 100 µM throughout. The TGI with T-47D breast, in the assay on A498 renal, in the assay with COLO 205 colon, with SF-539 CNS, with SW-620 colon and in the assay on MOLT-4 leukemia was above 100 µM each time. In addition, the TGI in the assay on SN12C renal, in the assay on LOX IMVI melanoma, with SNB-19 CNS and with SF-268 CNS was above 100 µM in each case.

For the compound `CC(=O)N1N=C(c2ccc(Nc3nc(Nc4ccc(F)cc4)nc(Nc4ccc(Cl)cc4)n3)cc2)CC1c1ccc(N(C)C)cc1` (stereo not given), the GI50 was 2.01 µM with T-47D breast; 14.4 µM in the assay on A498 renal; 1.81 µM with COLO 205 colon; 15.8 µM in the assay on SF-539 CNS; 13.3 µM with SW-620 colon; 4.2 µM in the assay on MOLT-4 leukemia. The GI50 in the assay on SN12C renal was 6.1 µM; in the assay with LOX IMVI melanoma, 3.85 µM; in the assay on SNB-19 CNS, 6.26 µM; with SF-268 CNS, 12.1 µM. The TGI is 16 µM in the assay on T-47D breast; 50.5 µM in the assay with A498 renal; 5.9 µM in the assay with COLO 205 colon; above 63.9 µM with SF-539 CNS; 56.8 µM in the assay on SW-620 colon; 30.9 µM with MOLT-4 leukemia. Also, the TGI in the assay with SN12C renal is 33.3 µM; in the assay on LOX IMVI melanoma, 12.8 µM; with SNB-19 CNS, above 56.2 µM; in the assay with SF-268 CNS, 49.2 µM.
